How the values were obtained:
Assay type in all cases: physicochemical
[1] = Chemical stability on storage: assay and impurities
Experimental: (§1) Samples of Example 2 and additional samples comprising micronized and non-micronized oxycodone useful for exemplary dosage forms are tested for their chemical stability and physical stability. Based on a comparison of stability data from micronized and non-micronized samples stored at both 25° C./60% RH and 40 C.°/75% RH, no differences are observed in the impurity profile through three months of study as shown in Tables 4 and 5 for exemplary lots. The impurities analyzed include (HOXY), 14-Hydroxycodeinone; (DHOXYN), 7,8-Dihydro-8,14-Dihydroxycodeinone; (DHOXY), 7,8-Dihydro-14-hydroxycodeine; (OXYE), Oxycodone ethylenolate; (OXYN), 1-Hydroxyoxycodone and Oxycodone N-oxide. Most of the impurities are found to be below the limit of quantitation (LOQ), except for HOXY and DHOXYN which were unchanged at 0.1%. […] The solid state stability of the micronized oxycodone is monitored for particle size, XRPD, DSC, and microscopy as shown in Table 6.

[2] = Physical stability on storage: particle size (Dv90) by laser diffraction
[3] = Physical stability on storage: DSC onset melt
Experimental: The micronized lots may also be analyzed by Differential Scanning Calorimetry (DSC). DSC is performed on a TA instrument Q100 using a heating ramp from 25-235° C. at a rate of 5° C./min. […] The sharp endotherm observed is consistent with a crystalline material and the absence of other thermal events proves that there were no polymorph transformations during melting.
as §1

[4] = Physical stability on storage: microscopy
Experimental: (§2) As a secondary analytical method, the micronized and the non-micronized oxycodone analyzed by laser diffraction with results shown in Table 1, were analyzed by optical microscopy to evaluate particle size and the results are shown in Table 2. Sample aliquots (˜50 mg for micronized and ˜225 mg for non-micronized) were dispersed in 10 ml of sunflower oil and viewed on a Nikon microscope equipped with a 10× objective. Particle size (mean diameter) was determined using Image Pro® Plus software and expressed as a number % undersize. The particle size values determined by optical microscopy as shown in Table 2 are consistent with the laser diffraction particle size data shown in Table 1.
as §1

[5] = Particle size distribution by laser diffraction (Malvern Mastersizer 2000), oxycodone base
[6] = Particle size by optical microscopy, number % undersize; conditions: mean diameter
Experimental: as §2

[7] = Table 1 analysis, lot 2 in duplicate
[8] = additional laser diffraction analysis, Table 3

COc1ccc2c3c1O[C@H]1C(=O)CC[C@@]4(O)[C@@H](C2)N(C)CC[C@]314 [Lot 3, oxycodone]
1-HydroxyOXY ([1]; 5° C./60% RH, 1 mo (Table 4)): <LOQ | 1-HydroxyOXY ([1]; 5° C./60% RH, 3 mo (Table 4)): <LOQ | Assay ([1]; 25° C./60% RH, 1 mo): 98.5% | DHOXY (7,8-Dihydro-14-hydroxycodeine) ([1]; 25° C./60% RH, 1 mo): <LOQ | DHOXYN (7,8-Dihydro-8,14-Dihydroxycodeinone) ([1]; 25° C./60% RH, 1 mo): 0.10% | HOXY (14-Hydroxycodeinone) ([1]; 25° C./60% RH, 1 mo): 0.08% | OXYE (Oxycodone ethylenolate) ([1]; 25° C./60% RH, 1 mo): <LOQ | OXYN ([1]; 25° C./60% RH, 1 mo): <LOQ | Other (impurities; Table 5: >0.05%) ([1]; 25° C./60% RH, 1 mo): <LOQ | Total impurities ([1]; 25° C./60% RH, 1 mo): 0.18% | Assay ([1]; 25° C./60% RH, 3 mo): 98.5% | DHOXY (7,8-Dihydro-14-hydroxycodeine) ([1]; 25° C./60% RH, 3 mo): <LOQ | DHOXYN (7,8-Dihydro-8,14-Dihydroxycodeinone) ([1]; 25° C./60% RH, 3 mo): 0.10% | HOXY (14-Hydroxycodeinone) ([1]; 25° C./60% RH, 3 mo): 0.08% | OXYE (Oxycodone ethylenolate) ([1]; 25° C./60% RH, 3 mo): <LOQ | OXYN ([1]; 25° C./60% RH, 3 mo): <LOQ | Other (impurities; Table 5: >0.05%) ([1]; 25° C./60% RH, 3 mo): <LOQ | Total impurities ([1]; 25° C./60% RH, 3 mo): 0.18% | 1-HydroxyOXY ([1]; 40° C./75% RH, 1 mo): <LOQ | Assay ([1]; 40° C./75% RH, 1 mo): 100.1% | DHOXY (7,8-Dihydro-14-hydroxycodeine) ([1]; 40° C./75% RH, 1 mo): <LOQ | DHOXYN (7,8-Dihydro-8,14-Dihydroxycodeinone) ([1]; 40° C./75% RH, 1 mo): 0.10% | HOXY (14-Hydroxycodeinone) ([1]; 40° C./75% RH, 1 mo): 0.08% | OXYE (Oxycodone ethylenolate) ([1]; 40° C./75% RH, 1 mo): <LOQ | OXYN ([1]; 40° C./75% RH, 1 mo): <LOQ | Other (impurities; Table 5: >0.05%) ([1]; 40° C./75% RH, 1 mo): <LOQ | Total impurities ([1]; 40° C./75% RH, 1 mo): 0.18% | 1-HydroxyOXY ([1]; 40° C./75% RH, 3 mo): <LOQ | Assay ([1]; 40° C./75% RH, 3 mo): 99.5% | DHOXY (7,8-Dihydro-14-hydroxycodeine) ([1]; 40° C./75% RH, 3 mo): <LOQ | DHOXYN (7,8-Dihydro-8,14-Dihydroxycodeinone) ([1]; 40° C./75% RH, 3 mo): 0.10% | HOXY (14-Hydroxycodeinone) ([1]; 40° C./75% RH, 3 mo): 0.08% | OXYE (Oxycodone ethylenolate) ([1]; 40° C./75% RH, 3 mo): <LOQ | OXYN ([1]; 40° C./75% RH, 3 mo): <LOQ | Other (impurities; Table 5: >0.05%) ([1]; 40° C./75% RH, 3 mo): <LOQ | Total impurities ([1]; 40° C./75% RH, 3 mo): 0.18% | 1-HydroxyOXY ([1]; Time 0): <LOQ | Assay ([1]; Time 0): 100.4% | DHOXY (7,8-Dihydro-14-hydroxycodeine) ([1]; Time 0): <LOQ | DHOXYN (7,8-Dihydro-8,14-Dihydroxycodeinone) ([1]; Time 0): 0.11% | HOXY (14-Hydroxycodeinone) ([1]; Time 0): 0.07% | OXYE (Oxycodone ethylenolate) ([1]; Time 0): <LOQ | OXYN ([1]; Time 0): <LOQ | Other (impurities; Table 5: >0.05%) ([1]; Time 0): <LOQ | Total impurities ([1]; Time 0): 0.18% | Particle size (Dv90) ([2]; 25° C./60% RH, 1 month): 9 μ | Particle size (Dv90) ([2]; 25° C./60% RH, 3 months): 10 μ | Particle size (Dv90) ([2]; 25° C./60% RH, 6 months): 10 μ | Particle size (Dv90) ([2]; 25° C./60% RH, 9 months): 8 μ | Particle size (Dv90) ([2]; 25° C./60% RH, 12 months): 8 μ | Particle size (Dv90) ([2]; 40° C./75% RH, 1 month): 9 μ | Particle size (Dv90) ([2]; 40° C./75% RH, 3 months): 11 μ | Particle size (Dv90) ([2]; 40° C./75% RH, 6 months): 10 μ | Particle size (Dv90) ([2]; Time 0): 6 μ | DSC Onset Melt ([3]; 25° C./60% RH, 3 mo): 221.9 °C | DSC Onset Melt ([3]; 40° C./75% RH, 3 mo): 221.9 °C | Microscopy, ≦10 μ ([4]; 25° C./60% RH, 3 mo): 98.3% | Microscopy, ≦10 μ ([4]; 40° C./75% RH, 3 mo): 94.5%

COc1ccc2c3c1O[C@H]1C(=O)CC[C@@]4(O)[C@@H](C2)N(C)CC[C@]314 [Lot 1, oxycodone]
Particle size (Dv10) [5, 7]: 0.5 μ | Particle size (Dv50) [5, 7]: 1.4 μ | Particle size (Dv90) [5, 7]: 3.0 μ | Particle size (Dv10) [5, 8]: 0.7 μ | Particle size (Dv50) [5, 8]: 2.1 μ | Particle size (Dv90) [5, 8]: 5.1 μ | % ≦ 1μ [6]: 30.5% | % ≦ 5μ [6]: 92.7% | % ≦ 10μ [6]: 99.5% | 1-HydroxyOXY ([1]; 5° C./60% RH, 1 mo (Table 4)): <LOQ | 1-HydroxyOXY ([1]; 5° C./60% RH, 3 mo (Table 4)): <LOQ | Assay ([1]; 25° C./60% RH, 1 mo): 98.9% | DHOXY (7,8-Dihydro-14-hydroxycodeine) ([1]; 25° C./60% RH, 1 mo): <LOQ | DHOXYN (7,8-Dihydro-8,14-Dihydroxycodeinone) ([1]; 25° C./60% RH, 1 mo): 0.10% | HOXY (14-Hydroxycodeinone) ([1]; 25° C./60% RH, 1 mo): 0.08% | OXYE (Oxycodone ethylenolate) ([1]; 25° C./60% RH, 1 mo): <LOQ | OXYN ([1]; 25° C./60% RH, 1 mo): <LOQ | Other (impurities; Table 5: >0.05%) ([1]; 25° C./60% RH, 1 mo): <LOQ | Total impurities ([1]; 25° C./60% RH, 1 mo): 0.18% | Assay ([1]; 25° C./60% RH, 3 mo): 99.9% | DHOXY (7,8-Dihydro-14-hydroxycodeine) ([1]; 25° C./60% RH, 3 mo): <LOQ | DHOXYN (7,8-Dihydro-8,14-Dihydroxycodeinone) ([1]; 25° C./60% RH, 3 mo): 0.10% | HOXY (14-Hydroxycodeinone) ([1]; 25° C./60% RH, 3 mo): 0.08% | OXYE (Oxycodone ethylenolate) ([1]; 25° C./60% RH, 3 mo): <LOQ | OXYN ([1]; 25° C./60% RH, 3 mo): <LOQ | Other (impurities; Table 5: >0.05%) ([1]; 25° C./60% RH, 3 mo): <LOQ | Total impurities ([1]; 25° C./60% RH, 3 mo): 0.18% | 1-HydroxyOXY ([1]; 40° C./75% RH, 1 mo): <LOQ | Assay ([1]; 40° C./75% RH, 1 mo): 100.0% | DHOXY (7,8-Dihydro-14-hydroxycodeine) ([1]; 40° C./75% RH, 1 mo): <LOQ | DHOXYN (7,8-Dihydro-8,14-Dihydroxycodeinone) ([1]; 40° C./75% RH, 1 mo): 0.10% | HOXY (14-Hydroxycodeinone) ([1]; 40° C./75% RH, 1 mo): 0.08% | OXYE (Oxycodone ethylenolate) ([1]; 40° C./75% RH, 1 mo): <LOQ | OXYN ([1]; 40° C./75% RH, 1 mo): <LOQ | Other (impurities; Table 5: >0.05%) ([1]; 40° C./75% RH, 1 mo): <LOQ | Total impurities ([1]; 40° C./75% RH, 1 mo): 0.18% | 1-HydroxyOXY ([1]; 40° C./75% RH, 3 mo): <LOQ | Assay ([1]; 40° C./75% RH, 3 mo): 99.5% | DHOXY (7,8-Dihydro-14-hydroxycodeine) ([1]; 40° C./75% RH, 3 mo): <LOQ | DHOXYN (7,8-Dihydro-8,14-Dihydroxycodeinone) ([1]; 40° C./75% RH, 3 mo): 0.10% | HOXY (14-Hydroxycodeinone) ([1]; 40° C./75% RH, 3 mo): 0.08% | OXYE (Oxycodone ethylenolate) ([1]; 40° C./75% RH, 3 mo): <LOQ | OXYN ([1]; 40° C./75% RH, 3 mo): <LOQ | Other (impurities; Table 5: >0.05%) ([1]; 40° C./75% RH, 3 mo): <LOQ | Total impurities ([1]; 40° C./75% RH, 3 mo): 0.18% | 1-HydroxyOXY ([1]; Time 0): <LOQ | Assay ([1]; Time 0): 99.3% | DHOXY (7,8-Dihydro-14-hydroxycodeine) ([1]; Time 0): <LOQ | DHOXYN (7,8-Dihydro-8,14-Dihydroxycodeinone) ([1]; Time 0): 0.10% | HOXY (14-Hydroxycodeinone) ([1]; Time 0): 0.08% | OXYE (Oxycodone ethylenolate) ([1]; Time 0): <LOQ | OXYN ([1]; Time 0): <LOQ | Other (impurities; Table 5: >0.05%) ([1]; Time 0): <LOQ | Total impurities ([1]; Time 0): 0.18% | Particle size (Dv90) ([2]; 25° C./60% RH, 3 months): 6 μ | Particle size (Dv90) ([2]; 40° C./75% RH, 3 months): 11 μ | Particle size (Dv90) ([2]; Time 0): 4 μ | DSC Onset Melt ([3]; 25° C./60% RH, 3 mo): 221.8 °C | DSC Onset Melt ([3]; 40° C./75% RH, 3 mo): 221.9 °C | DSC Onset Melt ([3]; Time 0): 222.0 °C | Microscopy, ≦10 μ ([4]; 25° C./60% RH, 3 mo): 98.4% | Microscopy, ≦10 μ ([4]; 40° C./75% RH, 3 mo): 98.2% | Microscopy, ≦10 μ ([4]; Time 0): 99.5%
